How the values were obtained:
Format in all cases: in vivo, rat
[1] = system: Western diet fed Sprague Dawley rats; assay: Fed plasma triglyceride (TG), Western diet fed rats, oral dosing; conditions: 2 hours post dose; for reduction of plasma TG in the fed state, relative to vehicle-administered Western diet fed rats: oral; for increase in plasma TG in the fed state, relative to vehicle-administered Western diet fed rats: oral monotherapy
Description: (§1) A randomized, vehicle-controlled, 8-parallel arm study was conducted in male Sprague-Dawley rats (Charles River (Boston, MA)) to obtain circulating and hepatic TG levels. Standard laboratory conditions were used to house 96 rats (˜200 g); they were double housed and kept under 12:12-hour reverse light-dark schedule (lights off at 8:00 AM). Rats were randomized into chow or Western diet groups and dose groups upon arrival and were given a 14-day lead-in period on either standard rat chow or Western diet prior to the start of the study. Standard Laboratory Rodent chow diet, 5053, was from LabDiet (PMI, St Louis, Missouri). Western Diet, D12079Bi, was from Research Diets (New Brunswick, New Jersey).
For these studies, vehicle was prepared to make a 0.5% (wt/volume) of methyl cellulose (MC, Sigma Aldrich; 274429) in deionized water. The stock solutions with either Compound A (prepared from the tris salt) or Compound D were prepared with the respective compound to provide a concentration such that 10 ml of the solution would deliver the desired mg/kg dosage amount, where the average weight of the rats used was about 200 g.
(§2) Starting on Day 1 of the study, rats were dosed orally (10 mL/kg) with either vehicle control (0.5% MC (wt/volume %) in dionized water), low or high doses of Compound A (1 mg/kg or 10 mg/kg QD, respectively), low or high doses of Compound D (5 mg/kg or 30 mg/kg BID respectively), or co-administration of low doses (Compound A at 1 mg/kg QD and Compound D at 5 mg/kg BID), or co-administration of high doses (Compound A at 10 mg/kg QD and Compound D at 30 mg/kg BID)
Fed plasma analytes: Blood for determining fed plasma TG concentrations was collected 2 hours post dose (2 hours into the dark cycle) via lateral tail vein, transferred to BD Microtainer tubes coated with dipotassium ethylenediaminetetraacetic acid (K2EDTA) (PN365974), and centrifuged at 4° C. The resulting plasma samples were then analyzed on a Siemens Chemistry XPT clinical analyzer (Malven, PA) using Siemens triglycerides_2 assay reagents (ref 10335892).

[2] = system: acetyl-CoA carboxylase (ACC1); assay: Hepatic lipogenic gene expression (qPCR), Western diet fed rats: ACC1; conditions: Actb housekeeping gene, Day 28 liver
Description: as §1
(§3) Starting on Day 1 of the study, rats were dosed orally (10 mL/kg) with either vehicle control (0.5% MC (wt/volume %) in dionized water), low or high doses of Compound A (1 mg/kg or 10 mg/kg QD, respectively), low or high doses of Compound D (5 mg/kg or 30 mg/kg BID respectively), or co-administration of low doses (Compound A at 1 mg/kg QD and Compound D at 5 mg/kg BID), or co-administration of high doses (Compound A at 10 mg/kg QD and Compound D at 30 mg/kg BID) […]
(§4) Another portion of the pulverized liver was processed and analyzed for lipogenic gene expression. Rat taqman probes against ACC1, FASN, SCD1, PCSK9 and SREBP-1c were all assessed using Actb as housekeeping gene on qPCR.

[3] = system: fatty acid synthase (FASN); assay: Hepatic lipogenic gene expression (qPCR), Western diet fed rats: FASN; conditions: Actb housekeeping gene
Description: as §1, §3, §4

[4] = system: Western diet fed Sprague Dawley rats; assay: Hepatic triglyceride (steatosis), Western diet fed rats; conditions: oral, Day 28
Description: as §1, §2
On the last day of the study (Day 28), rats were sacrificed for tissue collection after a 4 hour fast, 2 hours post-dose: two hours post-dose, blood for determining plasma analytes was collected via lateral tail vein and then the animals were sacrificed by CO2 asphyxiation. Blood was transferred to BD Microtainer tubes coated with K2EDTA (PN365974), centrifuged at 4° C. and the plasma transferred to a 96-well microtitre plate and stored at −20° C. Livers were rapidly removed, freeze-clamped in a Wollenberg clamp pre-cooled in liquid N2 individually wrapped in aluminum foil and subsequently stored at −80° C.
Tissue pulverization: Frozen livers were rapidly pulverized on an aluminum block cooled in liquid N2, ensuring the tissue remained frozen throughout the pulverization. The pulverized tissues were transferred and stored in 7 mL polypropylene conical tubes at −80° C. until analysis.
Extraction for hepatic triglyceride: Approximately 50 to 100 mg of pulverized tissue was added to a 2 mL lysing matrix D tube (MP Bio) containing 800 μL ice cold 1:1 CHCl3:MEOH. Samples were immediately extracted at 4° C. using Qiagen Tissue Lyser II (Qiagen Cat No. 85300) for 4 minutes at 30 Hz. The homogenate was then transferred to 13×100 mm glass tubes and placed on ice. The lysis tubes were then rinsed with 800 μL of 1:1 CHCl3:MeOH, vortexed for 30 seconds and added to the 13×100 mm glass tubes. While on ice, 2.4 ml of 100% CHCl3 was added to all glass vials to bring the ratio of CHCl3:MeOH to 4:2. Samples were then placed in the −20° C. freezer overnight. […]

[5] = high dose (Compound A 10 mg/kg QD; Compound D 30 mg/kg BID; or both co-administered)
[6] = low dose (Compound A 1 mg/kg QD; Compound D 5 mg/kg BID; or both co-administered)

Compound | reduction of plasma TG in the fed state, relative to vehicle-administered Western diet fed rats ([1]; high dose (Compound D 30 mg/kg BID; co-administration: Compound A 10 mg/kg QD and Compound D 30 mg/kg BID)) [%] | reduction of plasma TG in the fed state, relative to vehicle-administered Western diet fed rats ([1]; low dose (Compound D 5 mg/kg BID; co-administration: Compound A 1 mg/kg QD and Compound D 5 mg/kg BID)) [%] | hepatic ACC1 gene expression relative to Western Diet fed and vehicle treated animals [2] | hepatic FASN gene expression relative to Western Diet fed and vehicle treated animals ([3]; Day 28 liver) | reduction in steatosis (hepatic triglyceride), relative to vehicle administered Western diet fed rats [4, 5] [%] | reduction in steatosis (hepatic triglyceride), relative to vehicle administered Western diet fed rats [4, 6] [%] | increase in plasma TG in the fed state, relative to vehicle-administered Western diet fed rats ([1]; high dose (Compound A 10 mg/kg QD)) [fold] | increase in plasma TG in the fed state, relative to vehicle-administered Western diet fed rats ([1]; low dose (Compound A 1 mg/kg QD)) [fold] | hepatic FASN gene expression relative to Western Diet fed and vehicle treated animals ([3]; Compound A high dose only (10 mg/kg QD))
CCOc1cccnc1Oc1cncc(-c2ncc(C(=O)N[C@H]3CCOC3)cn2)c1 [Compound D, (S)-2-(5-((3-ethoxypyridin-2-yl)oxy)pyridin-3-yl)-N-(tetrahydrofuran-3-yl)pyrimidine-5-carboxamide] | 63 | 55 | decreased expression | decreased expression | 30 | 25 |  |  | 
COc1cc(C(=O)N2CCC3(CC2)CC(=O)c2c(cnn2C(C)C)C3)cc(-c2ccc(C(=O)O)cc2)n1 [Compound A, 4-(4-(1-isopropyl-7-oxo-1,4,6,7-tetrahydrospiro[indazole-5,4′-piperidine]-1′-carbonyl)-6-methoxypyridin-2-yl)benzoic acid] |  |  | trended to further increase |  | 53 | 36 | 1.3 | 1.7 | trended to further increase
